Measurements as given in US10987317B2, “Inhibition of glutaminase C” (Cornell University, priority 2009, dated 2021).
Entries after “also recorded” stand apart in the source; their conditions may differ.

Experiments:
[1] = molecular target: T1, V5-tagged GAC from Dbl-transformed NIH 3T3 cells (Mus musculus, UniProt D3Z7P3); experiment: GA activity of immunoprecipitated V5-GAC; assay type: cell-based; settings: GAC isolated from Dbl cells, dephosphorylation conditions
T1 construct: expressed in transfected cells; host or cells: NIH 3T3 cells stably expressing oncogenic Dbl
T1 sequence (D3Z7P3 55-603 isoform D3Z7P3-2 limits assumed): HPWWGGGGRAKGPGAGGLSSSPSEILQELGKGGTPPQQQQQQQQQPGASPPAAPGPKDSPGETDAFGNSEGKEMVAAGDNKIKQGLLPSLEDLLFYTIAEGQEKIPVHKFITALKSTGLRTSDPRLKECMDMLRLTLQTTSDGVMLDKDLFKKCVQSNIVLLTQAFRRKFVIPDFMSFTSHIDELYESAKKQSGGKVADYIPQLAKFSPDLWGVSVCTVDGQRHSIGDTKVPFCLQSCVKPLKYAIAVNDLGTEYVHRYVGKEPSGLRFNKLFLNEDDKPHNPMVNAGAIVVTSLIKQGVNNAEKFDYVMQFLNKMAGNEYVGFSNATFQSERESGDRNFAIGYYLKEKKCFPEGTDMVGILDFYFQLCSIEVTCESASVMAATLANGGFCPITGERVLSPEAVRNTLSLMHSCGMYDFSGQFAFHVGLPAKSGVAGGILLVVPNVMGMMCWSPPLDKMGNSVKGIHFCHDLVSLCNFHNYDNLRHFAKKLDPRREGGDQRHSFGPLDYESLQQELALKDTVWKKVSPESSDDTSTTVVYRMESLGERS
Excerpt: (§1) FIGS. 4A-E illustrate the role of glutaminase C activity in cellular transformation. […] Data represent the average of 3 experiments (±s.d.). […] Data represent the average of 3 experiments (±s.d.). […] 100% represents the activity measured in untreated Dbl-transformed cells. The data represent the average of 2 experiments. […] 100% represents the activity measured in untreated SKBR3 cells. The data represent the average of 2 experiments. […] Data represent the average of 3 experiments (±s.d.).
NIH 3T3 cells or NIH 3T3 cells stably expressing the Dbl oncogene, were transiently transfected with DNA encoding a V5-tagged GAC. The cells were then harvested and the ectopically expressed GAC was isolated by immunoprecipitation via the V5 tag. The VS-GAC obtained from one of the Dbl samples was additionally treated with alkaline phosphtase under dephosphorylation conditions. The samples were then assayed for glutaminase activity in the absence of phosphate (top panel) and the relative expression levels of VS-GAC was determined by Western blotting using an anit-V5 antibody (bottom panel).
NIH 3T3 cells stably expressing oncogenic Dbl were transiently transfected with DNA encoding VS-tagged GAC, and cells were treated with either 968 or BA-968 ([…]) as indicated for 48 hours. The cells were then harvested and the ectopically expressed GAC was isolated by immunoprecipitation via the V5 tag. The samples were then assayed for glutaminase activity in the absence of phosphate (top panel) and the relative expression levels of VS-GAC was determined by Western blotting using an anti-V5 antibody (bottom panel).

[2] = tested on: GA activity in SKBR3 cells; experiment: GA activity in mitochondrial fractions; assay type: cell-based, human; settings: 2 μM
Description: (§2) 100%=620 moles of glutamine hydrolyzed per minute per mole of enzyme. Data represent the average of 3 experiments (±s.d.). […] Following precipitation of the beads and re-suspension, the samples are analyzed by Western blotting with anti-V5 antibody. […] Data represent the average of 3 experiments (±s.d.). […] Data represent the average of 3 experiments (±s.d.). […] Data represent the average of 3 experiments (±s.d.). FIG. 3E NIH 3T3 cells transiently expressing Dbl are assayed for focus formation in the presence of 10 μM 968 alone or together with […] dimethyl α-ketoglutarate. […] 100%=680 nM glutamine hydrolyzed per minute per 10^5 cells. Data are the average of 3 experiments (=s.d.). […] 100%=750 nM glutamine hydrolyzed per minute per 10^5 cells. Data represent the average of 3 experiments (±s.d.).
as §1
FIGS. 11A-E illustrate the effects of different treatments on GA activity. […] The addition of Pi stimulated the GA activity in control 3T3 cells, Dbl-expressing cells, and Cdc42(F28L)-expressing cells by ˜6-fold, 2-fold, and 3-fold, respectively. 100% represents the Pi-stimulated activity measured for Dbl-transformed cells that are not treated with 968. Data is the average of 3 experiments (±s.d.). […] The addition of Pi stimulated the GA activity of HMECs, MDA-MB231 cells, and SKBR3 cells by ˜5-fold, 2-fold, and 1.4-fold, respectively. […] The data are plotted as the percentage of GA activity measured for untreated SKBR3 cells and represent the average of 2 experiments. […] 100% represents the P1-stimulated activity measured for untreateDbl-transformed cells. […]

[3] = tested on: GA activity in Dbl- and Cdc42(F28L)-expressing NIH 3T3 cells; experiment: GA activity in mitochondrial fractions of transformed fibroblasts; assay type: cell-based; settings: Dbl-transformed cells, 2 μM
Description: as §2, §1
FIGS. 11A-E illustrate the effects of different treatments on GA activity. […] The addition of Pi stimulated the GA activity in control 3T3 cells, Dbl-expressing cells, and Cdc42(F28L)-expressing cells by ˜6-fold, 2-fold, and 3-fold, respectively. 100% represents the Pi-stimulated activity measured for Dbl-transformed cells that are not treated with 968. Data is the average of 3 experiments (±s.d.). […] The addition of Pi stimulated the GA activity of HMECs, MDA-MB231 cells, and SKBR3 cells by ˜5-fold, 2-fold, and 1.4-fold, respectively. 100% represents the Pi-stimulated activity for SKBR3 cells that were not treated with 968. Data are the average of 3 experiments (±s.d.). […] Mitochondrial fractions are prepared from equal numbers of cells and assayed for GA activity in the presence or absence of 133 mM Pi. The data are plotted as the percentage of GA activity measured for untreated SKBR3 cells and represent the average of 2 experiments. […] 100% represents the P1-stimulated activity measured for untreateDbl-transformed cells. The data represent the average of 2 experiments. […] 100% represents the Pi-stimulated activity for untreated SKBR3 cells. The data represent the average of 2 experiments.
Mitochondrial preparations were obtained using the mitochondria isolation kit from QIAGEN (Cat #37612). A suspension containing 2×10^7 cells was transferred into a 50 ml conical tube and centrifuged at 500×g for 10 minutes at 4° C. […]

[4] = tested on: NIH 3T3 cells transfected with oncogenic Dbl; experiment: Dbl-induced cellular transformation (focus-forming assays, growth in low serum, soft agar); assay type: cell-based; settings: focus formation / growth in low serum
Description: FIGS. 1A-E illustrate that the small molecule 968 inhibiting cellular transformation. […] Cells were fixed and stained with crystal violet for counting of foci. Right: 968 was serially diluted (10, 5, 2.5, and 1.25 μM) and evaluated for its ability to inhibit focus formation. […] After 6 days, the cells are counted. 100% represents the number of Dbl-transformed cells counted in the absence of 968 (27.5×10^4 cells). Data represent the average of 3 experiments (±s.d.). […] At the indicated times, the cells are counted. Data represent the average of 3 experiments (±s.d.).
FIGS. 2A-G illustrate effects of 968 on the transforming activity of constitutively active Rho GTPases and human breast cancer cells. […] Cells are scored after 14 days and plotted as the percentage of the total number of colonies greater than […] in diameter. Data represent the average of 3 experiments (±s.d.). […] Data represent the average of 3 experiments (±s.d.). […] Data represent the average of 3 experiments (±s.d.). […] After 24 hours at 37° C. the migratory cells are fixed, stained with GIEMSA, and counted. Data represent the average of 3 experiments (±s.d.). […] Data represent the average of 3 experiments (±s.d.). […] Data represent the average of 3 experiments (±s.d.). […] Data represent the average of 3 experiments (±s.d.).
FIGS. 5A-C illustrate comparative abilities of 968 and other benzo[a]phenanthrldinones to inhibit the transforming activity of oncogenic Dbl and H-Ras. […] Histograms show the relative levels of Dbl-induced focus formation for the different treatments, compared to Dbl-induced focus formation measured in the presence of DMSO (i.e. solvent control). Data represent the average of 3 experiments (mean±s.d.). […] Histograms show the relative levels of Ras(G12V)-induced focus formation measured for the different treatments, compared to Ras(G12V)-induced focus formation measured in the presence of DMSO (solvent control). Data represent the average of 3 experiments (mean±s.d.). FIG. 5C NIH 3T3 cells stably expressing H-Ras(G12V) that are cultured in DMEM supplemented with 1% calf serum, with the indicated amounts of 968. After 6 days, cells are trypsinized and counted. 100% represents the number of cells counted in the absence of 968, i.e. 26×10^4 cells. Data represent the average of 3 experiments (mean±s.d.).

[5] = molecular target: T2, E. coli-expressed mouse ortholog of human GAC (Mus musculus, UniProt D3Z7P3); experiment: Recombinant glutaminase activity assay; assay type: biochemical
T2 construct: A plasmid encoding mouse GAC (residues 128-603) was cloned into the pET28a vector; His-tag (N, cleaved yes); made in house; host or cells: E. coli (pET28a)
T2 sequence (D3Z7P3 128-603 isoform D3Z7P3-2): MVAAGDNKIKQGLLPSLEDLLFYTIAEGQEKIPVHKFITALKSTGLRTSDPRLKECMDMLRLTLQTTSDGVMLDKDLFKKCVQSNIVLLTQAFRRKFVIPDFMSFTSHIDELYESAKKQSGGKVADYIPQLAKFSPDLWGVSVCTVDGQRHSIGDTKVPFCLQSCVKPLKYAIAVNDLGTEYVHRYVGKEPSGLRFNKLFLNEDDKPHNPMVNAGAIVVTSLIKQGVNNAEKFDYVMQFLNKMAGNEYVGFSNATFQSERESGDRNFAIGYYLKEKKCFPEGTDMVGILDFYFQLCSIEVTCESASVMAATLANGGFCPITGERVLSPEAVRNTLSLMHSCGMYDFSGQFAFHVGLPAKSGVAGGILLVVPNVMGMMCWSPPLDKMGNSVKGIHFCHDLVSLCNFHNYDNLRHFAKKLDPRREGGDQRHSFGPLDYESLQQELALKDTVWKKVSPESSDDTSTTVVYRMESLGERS
Description: as §2
The activity of the E. coli-expressed recombinant mouse ortholog of human GAC are assayed in the presence of 0 (●), 10 (∇) or 20 (▪) μM 968 and inorganic phosphate in the form of dipotassium hydrogen phosphate. […] The data are plotted as GA activity as function of varying concentrations of glutamine or inorganic phosphate. The data are the average of 3 experiments and are plotted as mean±SEM.
Glutaminase activity assays were performed on recombinant enzyme as previously described (Kenny et al., “Bacterial Expression, Purification and Characterization of Rat Kidney-Type Mitochondrial Glutaminasc,” Protein Expr. Purif 31:140-148 (2003), which is hereby incorporated by reference in its entirety). A plasmid encoding mouse GAC (residues 128-603) was cloned into the pET28a vector and the protein was expressed with an N-terminal histidine (His)-tag. The tag was cleaved using thrombin and the protein was further purified by anion-exchange and gel-filtration chromatography. […] The reaction mixture was incubated at room temperature for 45 minutes and the absorbance at 340 nm was recorded for each sample against a water blank. The absorbance of the sample with just the cocktail mixture was subtracted from each reading to calculate the activity of the enzyme.

With “alkaline phosphatase [reference compound]” as the compound, how does the “reduction of basal glutaminase (phosphate independent) activity” value [1] read?
Its value is 75%.

For `Cc1ccc(S(=O)(=O)/C=C/C#N)cc1` [BAY 11-7082, reference compound], which “basal GA activity” value [2] is on record?
Its value is “significantly reduces”.

What about the “direct stimulation of the enzyme by phosphate” value [2] of the same compound?
The value was “little or no effect”.

And the “direct stimulation of the enzyme by phosphate” value [3]?
Its value is “little or no effect”.

And the “basal GA activity” value ([3]; 2 days)?
Its value is “significantly reduces”.

How did the “inhibition of Dbl-induced transformation” value [4] turn out when `CN(C)c1ccc(C2Nc3ccc4ccccc4c3C3=C2C(=O)CC(C)(C)C3)cc1` (centres unmarked) [Compound 384] was run?
Its value is “little or no inhibition”.

What does the source list for `CC1(C)CC(=O)C2=C(C1)c1c(ccc3ccccc13)NC2c1cccc(Br)c1` (centres unmarked) [Compound 335]?
inhibition of Dbl-induced transformation [4]: little or no inhibition; also recorded: less effective; inhibition of enzymatic activity of purified GAC [5]: little ability to inhibit enzyme activity
